Experimental data from US4888329A, “Antiulcer composition” (Senju Pharmaceutical Co., Ltd., priority 1987, dated 1989).

Key:
rat stress ulcer [1] = assay: Effect on rat stress ulcer, intraperitoneal (Experimental Example 4); assay type: in vivo, male Wistar rats; details: for Length of ulcer: mean ± S.E., 7 h water immersion at 23° C., control 31.7 ± 3.64; for % Inhibition: length of ulcer vs control
Method: The test drugs were administered intraperitoneally to male Wistar rats weighing about 130-190 g and after 30 minutes, the four limbs of each rat were fixed to a board with tying thread. The rats were then immersed in water at 23° C. for 7 hours for stress loading. Ten minutes before water immersion, 3 ml/kg of 5% Pontamine Sky Blue was intravenously injected. After 7-hour water immersion, the rats were removed from the water and stomach was excised and fixed in 1% aqueous formaldehyde. Then length of gastric ulcer induced was measured.
(§1) *physiological saline, 5 ml/kg
In the above table, each value in the column corresponding to length of ulcer is the mean ± S.E. and the figure in the parentheses denotes the number of cases.

rat stress ulcer [2] = assay: Effect on rat stress ulcer, oral (Experimental Example 1); assay type: in vivo, male Wistar rats; details: disodium salt; for Length of ulcer: mean ± S.E., 5 h water immersion at 23° C., control 25.5 ± 4.29; for % Inhibition: length of ulcer vs control, 5 h water immersion
Method: The test drug was administered orally to male Wistar rats weighing 230-270 g and after 30 minutes, the four limbs of each rat were fixed to a board with tying thread. The rats were then immersed in water at 23° C. for 5 hours for stress loading. Ten minutes before water immersion, 3 ml/kg of 5% Pontamine Sky Blue was intravenously injected. After this 5-hour water immersion, the rats were removed from the water and the stomach was excised and fixed in 1% aqueous formaldehyde. Then, the length of the gastric ulcer induced was measured.
*Control: 5% gum arabic solution, 5 ml/kg
In the above table, each value in the column corresponding to length of ulcer is the mean ± S.E. (standard error) and the figure in parentheses denotes the number of the cases.

rat stress ulcer [3] = assay: Effect on rat stress ulcer, intraperitoneal (Experimental Example 2); assay type: in vivo, male Wistar rats; details: 10 mg/5ml/kg intraperitoneal, disodium salt
Method: The test drug was aministered intraperitoneally to male Wistar rats weighing about 150 g. After 30 minutes, each rat was fixed to a board with tying thread and immersed in water at 23° C. for 7 hours for stress loading. Ten minutes before water immersion, 3 ml/kg of 5% Pontamine Sky Blue was intravenously administered.
After this 7-hour water immersion, the rats were removed from the water and the stomach was excised and fixed in 1% aqueous formaldehyde. Then, the length (mm) of the gastric ulcer induced was measured.
as §1
In the above table, each value in the column corresponding to the length of ulcer is the mean ± S.E. and the figure in the parentheses denotes the number of cases.

[4] = test system: indomethacin-induced ulcer; assay: Effect on indomethacin-induced ulcer (Experimental Example 3); assay type: in vivo, male Donryu rats; details: disodium salt; for Length of ulcer: 30 min before indomethacin, mean ± S.E., 7 h after indomethacin, control 30.8 ± 5.97; for % Inhibition: length of ulcer vs control
Method: Male Donryu rats weighing 180-200 g were fasted for 24 hours and, then, a suspension of indomethacin in 1% carboxymethylcellulose (30 mg/[…]) was subcutaneously injected. The test drug was orally administered 30 minutes before indomethacin loading. Ten minutes before sacrifice at 7 hours after indomethacin loading, 3 ml/kg 5% Pontamine Sky Blue was intravenously injected. After sacrifice, the stomach was excised and fixed in 1% aqueous formaldehyde. Then, the length (mm) of the gastric ulcer induced was measured.
*5% gum arabic solution, 5 ml/kg
In the above table, each value in the column corresponding to the length of ulcer is the mean ± S.E. and the figure in parentheses denotes the number of cases.

Toxicity in rat (LD50) = details: in vivo
Text: For instance, the toxicity in rat of disodium salt of phosphoric acid diester of L-ascorbic acid and DL-α-tocopherol was observed as follows: […]

SMILES: CN/C(=N/CCSCc1nc[nH]c1C)NC#N [Cimetidine, reference compound]
- Length of ulcer (rat stress ulcer [1]; 200 mg/5 ml/kg intraperitoneal, n=5): 7.4 ± 7.16 mm
- % Inhibition (rat stress ulcer [1]; 200 mg/5 ml/kg intraperitoneal): 76.7%

SMILES: Cc1c(C)c2c(c(C)c1OP(=O)(O)OC1=C(O)[C@@H]([C@@H](O)CO)OC1=O)CCC(C)(CCCC(C)CCCC(C)CCCC(C)C)O2 (mixture of isomers) [α-EPC, phosphoric acid diester of L-ascorbic acid and DL-α-tocopherol]
- Length of ulcer (rat stress ulcer [2]; 100 mg/5ml/kg oral, n=5): 19.4 ± 6.91 mm
- Length of ulcer (rat stress ulcer [2]; 1000 mg/5ml/kg oral, n=6): 10.3 ± 3.51 mm
- % Inhibition (rat stress ulcer [2]; 100 mg/5ml/kg oral): 23.9%
- % Inhibition (rat stress ulcer [2]; 1000 mg/5ml/kg oral): 59.6%
- Length of ulcer (rat stress ulcer [3]; mean ± S.E., n=6, 7 h water immersion at 23° C., control 34.3 ± 4.76): 7.7 ± 6.00 mm
- % Inhibition (rat stress ulcer [3]; length of ulcer vs control, 7 h water immersion): 77.6%
- Length of ulcer ([4]; 300 mg/5 ml/kg oral, n=8): 20.4 ± 3.72 mm
- Length of ulcer ([4]; 1000 mg/5 ml/kg oral, n=9): 3.5 ± 1.54 mm
- % Inhibition ([4]; 300 mg/5 ml/kg oral): 33.8%
- % Inhibition ([4]; 1000 mg/5 ml/kg oral): 88.6%
- Length of ulcer (rat stress ulcer [1]; 10 mg/5 ml/kg intraperitoneal, disodium salt, n=10): 8.5 ± 4.06 mm
- Length of ulcer (rat stress ulcer [1]; 30 mg/5 ml/kg intraperitoneal, disodium salt, n=5): 2.8 ± 1.27 mm
- % Inhibition (rat stress ulcer [1]; 10 mg/5 ml/kg intraperitoneal, disodium salt): 73.2%
- % Inhibition (rat stress ulcer [1]; 30 mg/5 ml/kg intraperitoneal, disodium salt): 91.2%
- LD50 (Toxicity in rat (LD50); po, per os): > 10000 mg/kg
- LD50 (Toxicity in rat (LD50); sc, subcutaneous administration): 793 mg/kg
